Measured values from patent US10829520B2, “Beta-hairpin peptidomimetics” (POLYPHOR AG, priority 2015, dated 2020).
Where two headings read alike, the source gives them in different places. Where a SMILES comes first, the peptide text is derived from it. Bridges are numbered along the chain shown (N, C = ends). [ ]: non-standard residue; d: D form. aThr = C[C@H](O)[C@H](N)C(=O)O; Tle = CC(C)(C)[C@H](N)C(=O)O; Nle = CCCC[C@H](N)C(=O)O; Dab = NCC[C@H](N)C(=O)O; Dap = NC[C@H](N)C(=O)O

Columns and labels:
Assay type in all cases: cell-based
[1] = tested on: human red blood cells (hRBC); test: Hemolysis of human red blood cells
Procedure, shortened: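 Washed fresh human erythrocytes (20% v/v, ~0.9×10^9 cells/mL final) were incubated with peptides at 100 μg/mL for 1 h at 37 °C with shaking. Supernatant OD540 measured; hemolysis expressed as % of 2.5% Triton X-100 lysis, with PBS/0.001% acetic acid as 0%.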

[2] = tested on: Escherichia coli ATCC 25922
Procedure, shortened: (§1)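 CLSI broth microdilution in cation-adjusted Mueller-Hinton II broth with 0.002% Polysorbate 80, inoculum appr. 10^6 CFU/mL, peptides in serial two-fold dilutions. MIC (μg/mL) is the lowest concentration with no visible growth after 18-20 hours at 35° C.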

[3] = tested on: Klebsiella pneumoniae SSI #3010
Procedure, shortened: as §1

[4] = tested on: Pseudomonas aeruginosa ATCC 27853
Procedure, shortened: as §1

[5] = tested on: Acinetobacter baumannii DSM 30008
Procedure, shortened: as §1

[6] = tested on: Klebsiella pneumoniae 968733
[7] = tested on: Acinetobacter baumannii 872842
Escherichia coli 926415 = tested on: Escherichia coli 926415
[8] = red cells of human, 1 h, 100 μg/mL
[9] = clinical isolate, Mueller-Hinton II broth, P-80 0.002% present

Compound | Hemolysis at 100 μg/mL ([1]; red cells of human, 1 h, 100) | Escherichia coli ATCC 25922 MIC ([2]; ATCC 25922) | Klebsiella pneumoniae SSI #3010 MIC ([3]; SSI #3010) | Pseudomonas aeruginosa ATCC 27853 MIC ([4]; ATCC 27853) | Acinetobacter baumannii DSM 30008 MIC ([5]; DSM 30008) | Klebsiella pneumoniae 968733 MIC [6]; 968733 | Acinetobacter baumannii 872842 MIC [7]; 872842 | Escherichia coli 926415 MIC (Escherichia coli 926415; 926415) | Hemolysis at 100 μg/mL [1, 8] | Hemolysis at 100 μg/mL ([1]; 100 μg/mL, 20% hRBC, 1 h at 37° C.) | Escherichia coli ATCC 25922 MIC ([2]; Mueller-Hinton II broth) | Klebsiella pneumoniae SSI #3010 MIC ([3]; Mueller-Hinton II broth) | Pseudomonas aeruginosa ATCC 27853 MIC ([4]; Mueller-Hinton II broth) | Acinetobacter baumannii DSM 30008 MIC ([5]; Mueller-Hinton II broth) | Klebsiella pneumoniae 968733 MIC [6, 9] | Acinetobacter baumannii 872842 MIC [7, 9] | Escherichia coli 926415 MIC (Escherichia coli 926415; [9])
CCCC[C@@H]1NC(=O)[C@@H]2CCCN2C(=O)[C@H]2CCCN2C(=O)[C@H](CO)NC(=O)[C@H](C)NC(=O)[C@H](C(C)(C)C)NC(=O)[C@@H](NC(=O)[C@H](Cc2c[nH]c3ccccc23)NC(C)=O)CCC(=O)NCC[C@@H](C(=O)N[C@@H](CCN)C(=O)N[C@H](C(=O)N[C@@H](CCN)C(=O)N[C@H]2CCNC(=O)[C@H]([C@@H](C)O)NC(=O)[C@H](CCN)NC(=O)[C@H](CCN)NC(=O)[C@H](CC(C)C)NC(=O)[C@@H](Cc3ccccc3)NC(=O)[C@H](CCN)NC2=O)[C@@H](C)O)NC(=O)[C@H](Cc2ccc(O)cc2)NC(=O)[C@H](CO)NC1=O [Ex. 14] (Ac-WE[Tle]AS[dP]P[Nle]SY[Dab][Dab]T[Dab][Dab][Dab][dF]L[Dab][Dab]T; lactam 2-11, 15-C) | <1% | 0.5 µg/mL | 1 µg/mL | 1 µg/mL | 0.5 µg/mL | 8 µg/mL | 1 µg/mL | 4 µg/mL | – | – | – | – | – | – | – | – | –
CCCC[C@@H]1NC(=O)[C@@H]2CCCN2C(=O)[C@H]2CCCN2C(=O)[C@H](CO)NC(=O)[C@H](C)NC(=O)[C@H](C(C)(C)C)NC(=O)[C@@H](NC(=O)[C@@H](N)Cc2c[nH]c3ccccc23)CSSC[C@@H](C(=O)N[C@@H](CCN)C(=O)N[C@H](C(=O)N[C@@H](CCN)C(=O)N[C@H]2CCNC(=O)[C@H]([C@@H](C)O)NC(=O)[C@H](CCN)NC(=O)[C@H](CCN)NC(=O)[C@H](CC(C)C)NC(=O)[C@@H](CC(C)C)NC(=O)[C@H](CCN)NC2=O)[C@@H](C)O)NC(=O)[C@H](Cc2ccc(O)cc2)NC(=O)[C@H](CO)NC1=O [Ex. 15] (H-WC[Tle]AS[dP]P[Nle]SYC[Dab]T[Dab][Dab][Dab][dL]L[Dab][Dab]T; disulfide 2-11; lactam 15-C) | – | 0.125 µg/mL | 0.25 µg/mL | 1 µg/mL | 0.5 µg/mL | 2 µg/mL | 0.25 µg/mL | 0.125 µg/mL | 1% | – | – | – | – | – | – | – | –
CCCC[C@@H]1NC(=O)[C@@H]2CCCN2C(=O)[C@H]2CCCN2C(=O)[C@H](CO)NC(=O)[C@H](C)NC(=O)[C@H](C(C)(C)C)NC(=O)[C@@H](NC(=O)[C@@H](N)Cc2c[nH]c3ccccc23)CSSC[C@@H](C(=O)N[C@@H](CCN)C(=O)N[C@H](C(=O)N[C@@H](CN)C(=O)N[C@H]2CCNC(=O)[C@H]([C@@H](C)O)NC(=O)[C@H](CCN)NC(=O)[C@H](CCN)NC(=O)[C@H](CC(C)C)NC(=O)[C@@H](Cc3ccccc3)NC(=O)[C@H](CCN)NC2=O)[C@@H](C)O)NC(=O)[C@H](Cc2ccc(O)cc2)NC(=O)[C@H](CO)NC1=O [Ex. 16] (H-WC[Tle]AS[dP]P[Nle]SYC[Dab]T[Dap][Dab][Dab][dF]L[Dab][Dab]T; disulfide 2-11; lactam 15-C) | – | 0.5 µg/mL | 0.25 µg/mL | 0.25 µg/mL | 0.25 µg/mL | 0.375 µg/mL | 0.25 µg/mL | 0.125 µg/mL | 3% | – | – | – | – | – | – | – | –
CCCC[C@@H]1NC(=O)[C@@H]2CCCN2C(=O)[C@@H](C)NC(=O)[C@H](CO)NC(=O)[C@H](C)NC(=O)[C@H](C(C)(C)C)NC(=O)[C@@H](NC(=O)[C@H](Cc2c[nH]c3ccccc23)NC(C)=O)CSSC[C@@H](C(=O)N[C@@H](CCN)C(=O)N[C@H](C(=O)N[C@@H](CCN)C(=O)N[C@H]2CCNC(=O)[C@H]([C@@H](C)O)NC(=O)[C@H](CCN)NC(=O)[C@H](CCN)NC(=O)[C@H](CC(C)C)NC(=O)[C@@H](Cc3ccccc3)NC(=O)[C@H](CCN)NC2=O)[C@@H](C)O)NC(=O)[C@H](Cc2ccc(O)cc2)NC(=O)[C@H](CO)NC1=O [Ex. 17] (Ac-WC[Tle]AS[dA]P[Nle]SYC[Dab]T[Dab][Dab][Dab][dF]L[Dab][Dab]T; disulfide 2-11; lactam 15-C) | – | 0.25 µg/mL | 0.5 µg/mL | 0.5 µg/mL | 0.5 µg/mL | 0.5 µg/mL | 0.25 µg/mL | 1.5 µg/mL | 3% | – | – | – | – | – | – | – | –
CCCC[C@@H]1NC(=O)[C@@H]2CCCN2C(=O)[C@H]2CCCN2C(=O)[C@H]([C@@H](C)O)NC(=O)[C@H](CO)NC(=O)[C@H](C(C)(C)C)NC(=O)[C@@H](NC(=O)[C@H](Cc2c[nH]c3ccccc23)NC(C)=O)CSSC[C@@H](C(=O)N[C@@H](CCN)C(=O)N[C@H](C(=O)N[C@@H](CCN)C(=O)N[C@H]2CCNC(=O)[C@H]([C@@H](C)O)NC(=O)[C@H](CCN)NC(=O)[C@H](CCN)NC(=O)[C@H](CC(C)C)NC(=O)[C@@H](Cc3ccccc3)NC(=O)[C@H](CCN)NC2=O)[C@@H](C)O)NC(=O)[C@H](Cc2ccc(O)cc2)NC(=O)[C@H](C)NC1=O [Ex. 18] (Ac-WC[Tle]ST[dP]P[Nle]AYC[Dab]T[Dab][Dab][Dab][dF]L[Dab][Dab]T; disulfide 2-11; lactam 15-C) | – | – | – | – | – | – | – | – | – | 6% | 0.125 µg/mL | 2 µg/mL | 0.5 µg/mL | 0.25 µg/mL | 0.5 µg/mL | 1 µg/mL | 0.5 µg/mL
CCCC[C@@H]1NC(=O)[C@@H]2CCCN2C(=O)[C@H]2CCCN2C(=O)[C@H](CO)NC(=O)[C@H](C)NC(=O)[C@H](C(C)(C)C)NC(=O)[C@@H](NC(=O)[C@H](Cc2c[nH]c3ccccc23)NC(C)=O)CSSC[C@@H](C(=O)N[C@@H](CCN)C(=O)N[C@H](C(=O)N[C@@H](CN)C(=O)N[C@H]2CCNC(=O)[C@H]([C@@H](C)O)NC(=O)[C@H](CCN)NC(=O)[C@H](CCN)NC(=O)[C@H](CC(C)C)NC(=O)[C@@H](Cc3ccccc3)NC(=O)[C@H](CCN)NC2=O)[C@@H](C)O)NC(=O)[C@H](Cc2ccc(O)cc2)NC(=O)[C@H](CO)NC1=O [Ex. 20] (Ac-WC[Tle]AS[dP]P[Nle]SYC[Dab]T[Dap][Dab][Dab][dF]L[Dab][Dab]T; disulfide 2-11; lactam 15-C) | – | 0.125 µg/mL | 0.25 µg/mL | 0.25 µg/mL | 0.5 µg/mL | 1 µg/mL | 0.5 µg/mL | 0.25 µg/mL | 1% | – | – | – | – | – | – | – | –
CCCC[C@@H]1NC(=O)[C@@H]2CCCN2C(=O)[C@H]2CCCN2C(=O)[C@H](CO)NC(=O)[C@H](C)NC(=O)[C@H](C(C)(C)C)NC(=O)[C@@H](NC(=O)[C@H](Cc2c[nH]c3ccccc23)NC(C)=O)CSSC[C@@H](C(=O)N[C@@H](CCN)C(=O)N[C@H](C(=O)N[C@@H](CCN)C(=O)N[C@H]2CCNC(=O)[C@H]([C@@H](C)O)NC(=O)[C@H](CCN)NC(=O)[C@H](CCN)NC(=O)[C@H](CC(C)C)NC(=O)[C@@H](Cc3ccccc3)NC(=O)[C@H](CCN)NC2=O)[C@H](C)O)NC(=O)[C@H](Cc2ccc(O)cc2)NC(=O)[C@H](CO)NC1=O [Ex. 21] (Ac-WC[Tle]AS[dP]P[Nle]SYC[Dab][aThr][Dab][Dab][Dab][dF]L[Dab][Dab]T; disulfide 2-11; lactam 15-C) | – | 0.25 µg/mL | 0.25 µg/mL | 0.5 µg/mL | 0.25 µg/mL | 2 µg/mL | 1 µg/mL | 1 µg/mL | <1% | – | – | – | – | – | – | – | –
